Assay results taken from patent publication US20180372720A1, “STABLE ISOTOPE LABELING KINETICS - SECONDARY ION MASS SPECTROMETRY (SILK SIMS) AND METHODS OF USE THEREOF” (Washington University, priority 2017, published 2018).

Key:
Aβ plaques = settings: in vivo
Method: Human cortical tissue samples were obtained from the Charles F. and Joanne Knight Alzheimer's Disease Research Center (ADRC) at Washington University School of Medicine in Saint Louis, Mo. Cognitive status was determined with a validated retrospective postmortem interview with an informant to establish the Clinical Dementia Rating (CDR). […] At autopsy, the left hemisphere was fixed in 10% neutral buffered formalin and stored at room temperature until further preparation.
Blocks were polymerized at 80° C. for 72 hrs. Tissue blocks were sectioned using a diamond ultrathin section knife on a Reichert Ultra-Cut E ultramicrotome at 300-500 nm thick. […]
Each analysis was performed in 24-hour blocks with measurements on SiC standard to assess instrument stability followed by measurements on an un-labeled control prior to SILK-SIMS data acquisition. Raw image data was imported into custom, in-house particle definition software, L'Image, to produce quantitative mass images of heavy and light isotopes, and determine where any isotopic anomalies may be located. The fractional uncertainty, f, of the heavy/light isotope ratios in each region-of-interest (ROI) was calculated in Excel as the sum in quadrature of the standard deviation of the average ratios measured for non-labeled material, σStd, and the Poisson errors, σROI, of the ROI itself, as given by the equation […]

Aβ proteoforms = settings: Pt2, 8 days between labeling and expiration
Method: 1 g of frontal lobe tissue was homogenized in ice-cold 1×PBS with 0.05% CHAPS and centrifuged at 17,000×g for 30 min at 4° C. as previously described^4. The supernatant was spun for 1 hr at 100,000×g at 4° C. and the resulting pellet solubilize in 5 M guanidine overnight at 4° C. with rotation. Next, samples were spun for 20 min at 17,000×g at 4° C. and the supernatant was diluted 1:10 in 1×PBS in BSA-block tubes as previously described^4. Samples were immunoprecipitated (IP) with 50 uL of HJ5.1 anti-Aβ antibody (mid-domain epitope) coupled Dynabeads (Catalog #14311 D, Invitrogen, Carlsbad, Calif.) made following the manufacturer's instructions. After overnight incubation at 4° C. IPs were eluted in neat formic acid and dried in vacuo. Samples were resuspended in 50 mM TEABC (Catalog #17902, Sigma, St. Louis, Mo.), spiked with ^15N-Aβ internal standard, and digested overnight with 0.25 ng/μL Lys-N(Catalog #100965-1, Seikagaku Biobusiness Corp., Tokyo, Japan) at 4° C.
Samples were resuspended in 1% FA/10% ACN (v/v) with 20 nM BSA digest (Catalog #1863078, Pierce, Rockford, Ill.). Samples were analyzed in triplicate by nanoLC-MS/MS on an LTQ-Orbitrap Fusion (Thermo Fisher Scientific) in positive ion mode. Separations were performed using an online NanoAcquity UPLC (Waters, Milford, Mass.) using an ACQUITY UPLC HSS T3 (360 μm OD×75 μm ID) column packed with 10 cm C18 (1.8 μm, 100 Å, Waters) at 300 nL/min and heated to 65° C. Mobile phases were 0.1% FA in water (A) and 0.1% FA in ACN (B). Samples were eluted from the column with the gradient starting at 12% B, which was ramped to 32% B over 10 min and further increased to 90% B over 5 min and held for 1 min, before re-equilibration to 12% B over 2 min. Total run time, including column equilibration, sample loading, and analysis was 30 min. The mass spectrometer was operated in targeted MS2 mode. MS2 spectra were acquired in the Orbitrap (30,000 at m/z 400) in centroid mode using XCalibur, version 4.0 (Thermo Fisher Scientific). Ion injection times for the targeted MS2 scans for labeled and unlabeled respectively (in ms) were: Aβ mid-domain (54, 1080), Aβ40 (54, 540), and Aβ42 (54, 1080). The Orbitrap automatic gain control targets were set 5×10^5 for all proteoforms except Aβ42, which was set to 1×10^6. The targeted precursor ions were sequentially isolated in the quadrupole and fragmented in the Orbitrap using HCD (isolation width 1.6 Da, normalized collision energy 25%, activation Q 0.250, and activation time 10 ms). […]
Data (.raw files) were imported into a Skyline template containing the Lys-N C-terminal peptides of Aβ8, 40, 42 and the mid-domain. […] The sum of all transitions (b ions monitored for each parent peptide) were summed for unlabeled and SILK Aβ peptides and exported from Skyline to Excel. […]

[1] = mouse, in vivo
Method: Mouse whole blood was spun at 1,000×g for 10 min and the plasma (supernatant) removed. Plasma proteins were precipitated with ice-cold acetone followed by de-lipidation with hexane and the aqueous fraction was dried in vacuo^1. 1:1 MTBSTFA/acetonitrile was added and samples were incubated 70° C. for 30 min. Duplicate 1 μL injections were made into an Agilent 5973 MSD mass spectrometer using a 30 μm×0.25 mm DB-5MS column (Agilent Technologies). […] The molar fraction of labeled leucine was calculated as: MFL=TTR/(1+TTR).

amyloid-β plaques = settings: mouse, in vivo
Method: To assess the feasibility of detecting ^13C6-leucine isotopic enrichment in native amyloid-β plaques, tracer was administered to APP/PS1 mice at 3.5 months of age (pre-plaque pathology) for 10 and 5 weeks (FIG. 2A).
Two male double transgenic mice expressing chimeric mouse/human amyloid precursor protein (Mo/HuAPP695swe) and a mutant human presenilin 1 (PS1-dE9) both directed to CNS neurons (stock 34832-JAX) were kindly provide by Dr. Timothy Miller. Animals were given leucine-free chow (Catalog #1831936, Test Diet, St. Louis, Mo.) with 5 mg/mL ^12C6-leucine added to 2% sucrose-containing drinking water to control leucine intake for a one week acclimation period. After the one-week acclimation period, animals were given 5 mg/mL ^13C6- or ^12C6-leucine orally via 2% sucrose drinking water, averaging 36 mL of H2O/week (FIG. 2). Animals were 4 months old at the time of labeling and 6.5 months old at the end of labeling. Following the end of the labeling paradigm, animals were anesthetized with 65 mg/kg pentobarbital sodium and sacrificed by decapitation. Brains were removed and placed in 10% neutral-buffer formalin (Catalog #15740-01, EMS, Hatfield, Pa.). All animal procedures were conducted in accordance with the Washington University Animal Studies Committee, and are consistent with the National Institutes of Health (NIH) guidelines for the care and use of animals. Pieces of mouse brain were washed into NaHCa and incubated overnight at 4° C. The following morning, samples were stained with 1% osmium/NaHCa for 1 hour, washed 4 times over 1 hour and then en bloc stained with 1% uranyl acetate/H2O for 1 hour in the dark. Samples were rinsed with 3 exchanges of water, 10 minutes each and then processed for LR White embedding as described above with the addition of being gold-coated once on the Si wafer. Serial adjacent sections were place on glass microscope slides for toluidine blue staining for light microscopy.
Data was acquired on either a Cameca NanoSIMS 50 at WASHU (cells and human tissue) or NanoSIMS 50 L at Brigham and Women's Hospital (mouse tissue). Images of the B-cell hybridoma used to calculate that ^13C6-leucine standard curve were acquired at a 50 μm raster for 15 minutes at 1 ms/px and 65.5 s/plane (dwell time) for a total of 10 planes (i.e., cycles) per mass (256×256 px). APP/PS1 mouse brain tissue was acquired at a 17-60 μm raster for 11-87 minutes at 2 ms/px and 131 s/plane (dwell time) for a total of 5-40 cycles (i.e., planes) per mass (256×256 px).
Each analysis was performed in 24-hour blocks with measurements on SiC standard to assess instrument stability followed by measurements on an un-labeled control prior to SILK-SIMS data acquisition. Raw image data was imported into custom, in-house particle definition software, L'Image, to produce quantitative mass images of heavy and light isotopes, and determine where any isotopic anomalies may be located. The fractional uncertainty, f, of the heavy/light isotope ratios in each region-of-interest (ROI) was calculated in Excel as the sum in quadrature of the standard deviation of the average ratios measured for non-labeled material, σStd, and the Poisson errors, σROI, of the ROI itself, as given by the equation

CC(C)C[C@H](N)C(=O)O [^13C6-leucine]
increase above the natural abundance of ^13C/^12C (Aβ plaques): 18%
mean ratio of ^13C^14N−/^12C^14N− (Aβ plaques): 1.31%±0.05
detection of labeled Aβx-38 (Aβ proteoforms): unable detect
enrichment above isotopic background, Aβ mid-domain (Aβ proteoforms): 0.053%
enrichment above isotopic background, Aβx-40 (Aβ proteoforms): 0.112%
enrichment above isotopic background, Aβx-42 (Aβ proteoforms): 0.022%
Average Mol fraction labeled [1]: 72.02%
normalized tracer enrichment ratio (amyloid-β plaques): 0.015±2.22×10^−4
raw tracer enrichment ratio (amyloid-β plaques): 0.015±1.56×10^−5
^13C/^12C isotope ratio (amyloid-β plaques; po): 2.7%
^13C/^12C ratio (amyloid-β plaques; po): 3.7%
normalized ^13C^14N−/^12C^14N− ratio (amyloid-β plaques; po): 0.024±3.43×10^−4
raw ^13C^14N−/^12C^14N− ratio (amyloid-β plaques; po): 0.023±1.41×10^−5
